Results: the supplement of paper PMC4862054

Legend:
Conditions in all cases: incubation time: 72 h
MDA-MB-436 [1] = experiment: normalised response (% of control), CellTiter-Glo; higher = more viable cells (100 = DMSO, 0 = benzethonium chloride kill control)
Outline: (§1)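 Every value is a normalised signal taken at one concentration of a dilution series. Compound was placed in 384-well plates at 5 concentrations in 10-fold steps over a compound-specific 10,000-fold range, and 20 µl of breast cancer cell suspension was seeded onto it. After 72 h, CellTox Green fluorescence (485/520 nm) was measured first and CellTiter-Glo luminescence second, following 10 min at room temperature. Each plate was scaled to 0.1 % DMSO (100) and a positive kill control (0).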

HCC1143 [2] = experiment: as above
Outline: as §1

HCC1937 [3] = experiment: as above
Outline: as §1

CAL-51 [4] = experiment: as above
Outline: as §1

Hs578T = experiment: as above
Outline: as §1

HCC1599 [5] = experiment: as above
Outline: as §1

BT-474 [6] = experiment: as above
Outline: as §1

HDQ-P1 [7] = experiment: as above
Outline: as §1

CAL-85-1 [8] = experiment: as above
Outline: as §1

CAL-120 [9] = experiment: as above
Outline: as §1

SK-BR-3 = experiment: as above
Outline: as §1

MDA-MB-453 [10] = experiment: as above
Outline: as §1

MCF-10A [11] = experiment: as above
Outline: as §1

CAL-148 [12] = experiment: as above
Outline: as §1

MDA-MB-231 [13] = experiment: as above
Outline: as §1

DU-4475 [14] = experiment: as above
Outline: as §1

MDA-MB-468 [15] = experiment: as above
Outline: as §1

MFM-223 [16] = experiment: as above
Outline: as §1

BT-549 [17] = experiment: as above
Outline: as §1

MDA-MB-436 [18] = experiment: normalised response (% of control), CellTox Green; higher = less cell death (100 = DMSO, 0 = benzethonium chloride kill control)
Outline: as §1

HCC1143 [19] = experiment: as above
Outline: as §1

HCC1937 [20] = experiment: as above
Outline: as §1

CAL-51 [21] = experiment: as above
Outline: as §1

HCC1599 [22] = experiment: as above
Outline: as §1

BT-474 [23] = experiment: as above
Outline: as §1

HDQ-P1 [24] = experiment: as above
Outline: as §1

CAL-85-1 [25] = experiment: as above
Outline: as §1

CAL-120 [26] = experiment: as above
Outline: as §1

MDA-MB-453 [27] = experiment: as above
Outline: as §1

MCF-10A [28] = experiment: as above
Outline: as §1

CAL-148 [29] = experiment: as above
Outline: as §1

MDA-MB-231 [30] = experiment: as above
Outline: as §1

DU-4475 [31] = experiment: as above
Outline: as §1

MDA-MB-468 [32] = experiment: as above
Outline: as §1

MFM-223 [33] = experiment: as above
Outline: as §1

BT-549 [34] = experiment: as above
Outline: as §1

Compound | normalised response (MDA-MB-436 [1]) | normalised response (HCC1143 [2]) | normalised response (HCC1937 [3]) | normalised response (CAL-51 [4]) | normalised response (Hs578T) | normalised response (HCC1599 [5]) | normalised response (BT-474 [6]) | normalised response (HDQ-P1 [7]) | normalised response (CAL-85-1 [8]) | normalised response (CAL-120 [9]) | normalised response (SK-BR-3) | normalised response (MDA-MB-453 [10]) | normalised response (MCF-10A [11]) | normalised response (CAL-148 [12]) | normalised response (MDA-MB-231 [13]) | normalised response (DU-4475 [14]) | normalised response (MDA-MB-468 [15]) | normalised response (MFM-223 [16]) | normalised response (BT-549 [17]) | normalised response (MDA-MB-436 [18]) | normalised response (HCC1143 [19]) | normalised response (HCC1937 [20]) | normalised response (CAL-51 [21]) | normalised response (HCC1599 [22]) | normalised response (BT-474 [23]) | normalised response (HDQ-P1 [24]) | normalised response (CAL-85-1 [25]) | normalised response (CAL-120 [26]) | normalised response (MDA-MB-453 [27]) | normalised response (MCF-10A [28]) | normalised response (CAL-148 [29]) | normalised response (MDA-MB-231 [30]) | normalised response (DU-4475 [31]) | normalised response (MDA-MB-468 [32]) | normalised response (MFM-223 [33]) | normalised response (BT-549 [34])
Cc1c(C(=O)Nc2ccc(N3C[C@@H](C)O[C@@H](C)C3)nc2)cccc1-c1ccc(OC(F)(F)F)cc1 [Erismodegib] (1000 nM) | 84.6% | 89.8% | 97.9% | 66.1% | 101% | 101% | 81.7% | 91.7% | 93% | 96.5% | 81.7% | 79.2% | 85.6% | 98.5% | 94.2% | 98.9% | 93.7% | 84.9% | 90.5% | 94.7% | 110% | 74.5% | 97.5% | 103% | 103% | 99.7% | 104% | 99.7% | 101% | 107% | 110% | 72.4% | 97.6% | 111% | 101% | 136%
CO[C@H](C(=O)[C@@H](O)[C@@H](C)O)[C@@H]1Cc2cc3cc(O[C@H]4C[C@@H](O[C@@H]5C[C@@H](O)[C@H](O)[C@@H](C)O5)[C@H](O)[C@@H](C)O4)c(C)c(O)c3c(O)c2C(=O)[C@H]1O[C@H]1C[C@@H](O[C@@H]2C[C@@H](O)[C@@H](O[C@@H]3C[C@](C)(O)[C@H](O)[C@@H](C)O3)[C@@H](C)O2)[C@H](O)[C@@H](C)O1 [Plicamycin] (10 nM) | 101% | 103% | 97.7% | 74.9% | 105% | 117% | 108% | 96.4% | 103% | 101% | 111% | 118% | 114% | 116% | 103% | 107% | 109% | 108% | 104% |  |  |  |  |  |  |  |  |  |  |  |  |  |  |  |  | 
C[C@]12C=CC(=O)C=C1CC[C@@H]1[C@@H]2C(=O)C[C@@]2(C)[C@H]1CC[C@]2(O)C(=O)CO [Prednisone] (10 nM) | 101% | 101% | 95.8% | 118% | 96.7% | 96.9% | 103% | 96.3% | 99.9% | 104% | 123% | 118% | 109% | 108% | 98.7% | 107% | 98.4% | 104% | 98% |  |  |  |  |  |  |  |  |  |  |  |  |  |  |  |  | 
CO[C@H]1C[C@@H]2CC[C@@H](C)[C@@](O)(O2)C(=O)C(=O)N2CCCC[C@H]2C(=O)O[C@H]([C@H](C)C[C@@H]2CC[C@@H](O)[C@H](OC)C2)CC(=O)[C@H](C)/C=C(\C)[C@@H](O)[C@@H](OC)C(=O)[C@H](C)C[C@H](C)/C=C/C=C/C=C/1C [Sirolimus] (0.01 nM) | 103% | 92.4% | 105% | 87.1% | 94.7% | 98.3% | 99.1% | 100% | 89.9% | 95.9% | 106% | 103% | 106% | 91.1% | 93.6% | 104% | 94.1% | 95.5% | 97.6% |  |  |  |  |  |  |  |  |  |  |  |  |  |  |  |  | 
CN1CCN(c2nc(C3=C(c4c[nH]c5ccccc45)C(=O)NC3=O)c3ccccc3n2)CC1 [Sotrastaurin] (10 nM) | 94.2% | 96.1% | 96.6% | 123% | 101% | 105% | 93.5% | 100% | 95.8% | 91.3% | 124% | 96.1% | 99.6% | 93.1% | 105% | 96.8% | 93.6% | 93.6% | 94.6% |  |  |  |  |  |  |  |  |  |  |  |  |  |  |  |  | 
CC/C(=C(\c1ccccc1)c1ccc(OCCN(C)C)cc1)c1ccccc1 [Tamoxifen] (10 nM) | 100% | 114% | 103% | 83.8% | 97.3% | 103% | 103% | 104% | 98.8% | 100% | 100% | 98.7% | 112% | 108% | 100% | 104% | 99.2% | 108% | 91.8% |  |  |  |  |  |  |  |  |  |  |  |  |  |  |  |  | 
CN1CCc2c(c3ccccc3n2Cc2ccc(C(=O)NO)cc2)C1 [Tubastatin A] (1 nM) | 87.7% | 98% | 97.6% | 88.4% | 97.6% | 101% | 97.3% | 96.4% | 103% | 92.7% | 99.3% | 103% | 99.8% | 94.9% | 96.8% | 102% | 99.5% | 101% | 104% |  |  |  |  |  |  |  |  |  |  |  |  |  |  |  |  | 
CN1CCc2c(c3ccccc3n2Cc2ccc(C(=O)NO)cc2)C1 [Tubastatin A] (10 nM) | 95.2% | 95.2% | 99.6% | 67.6% | 102% | 92.8% | 92.7% | 99.4% | 107% | 96.1% | 93.8% | 94.1% | 101% | 107% | 92.4% | 100% | 102% | 102% | 96.3% |  |  |  |  |  |  |  |  |  |  |  |  |  |  |  |  | 
CCc1c(C(=O)C(N)=O)c2c(OCC(=O)O)cccc2n1Cc1ccccc1 [Varespladib] (1 nM) | 102% | 99% | 96.6% | 100% | 103% | 102% | 97.6% | 100% | 97.9% | 98.1% | 101% | 106% | 110% | 109% | 111% | 93.6% | 89.2% | 97.7% | 98.7% |  |  |  |  |  |  |  |  |  |  |  |  |  |  |  |  | 
CCc1c(C(=O)C(N)=O)c2c(OCC(=O)O)cccc2n1Cc1ccccc1 [Varespladib] (10 nM) | 96% | 102% | 97.7% | 107% | 104% | 95.9% | 97.2% | 97.1% | 97.3% | 96% | 99.1% | 95.4% | 105% | 104% | 99.7% | 102% | 98.9% | 102% | 92.9% |  |  |  |  |  |  |  |  |  |  |  |  |  |  |  |  | 
CCc1c(C(=O)C(N)=O)c2c(OCC(=O)O)cccc2n1Cc1ccccc1 [Varespladib] (1000 nM) | 94% | 106% | 100% | 106% | 102% | 96.4% | 92.6% | 100% | 97.6% | 98.2% | 100% | 99.8% | 104% | 104% | 103% | 101% | 100% | 95.8% | 94.2% | 103% | 108% | 105% | 110% | 99.3% | 99.9% | 114% | 114% | 106% | 109% | 97.7% | 100% | 103% | 102% | 105% | 97% | 102%
CC[C@@H]1C(=O)N(C)c2cnc(Nc3ccc(C(=O)N[C@H]4CC[C@H](N5CCN(CC6CC6)CC5)CC4)cc3OC)nc2N1C(C)C [Volasertib] (1 nM) | 100% | 99.9% | 99.2% | 111% | 103% | 113% | 89.7% | 92.5% | 102% | 100% | 98.5% | 77.1% | 102% | 105% | 97.6% | 100% | 90.1% | 98.3% | 102% |  |  |  |  |  |  |  |  |  |  |  |  |  |  |  |  | 
